The values below come from patent US9510598B2, “Nitrogen-containing heterocyclic compounds for plant disease control” (BAYER CROPSCIENCE AG, priority 2012, dated 2016).

The format of data set [1] is physicochemical. The conditions noted are these: for chromatographic logP: pH 2.7.
Another data set in a line: physchem. As to conditions: pH 2.7.
The subject of the next data set is Pyrenophora teres. The data set can be described thus: In vivo preventive test on Pyrenophora teres (net blotch on barley). As to conditions: 500 ppm; barley plants sprayed 24 hours before contamination; grading 12 days after contamination vs control plants. Here is the method: Barley plants (“Plaisant” variety), sown in starter cups on a 50/50 peat soil-pozzolana substrate and grown at 22° C. (12 h)/20° C. (12 h), are treated at the 1-leaf stage (10 cm height) by spraying with the active ingredient prepared as described above. Plants, used as controls, are treated with the mixture of acetone/tween/DMSO/water not containing the active material. After 24 hours, the plants are contaminated by spraying the leaves with an aqueous suspension of Pyrenophora teres spores (12 000 spores per ml). The spores are collected from a 12-day-old culture. […] Grading (% of efficacy) is carried out 12 days after the contamination, in comparison with the control plants.

In a further data set the test system is Alternaria brassicae. The data set can be described thus: In vivo preventive test on Alternaria brassicae (leaf spot on radish). The conditions noted are these: 500 ppm; radish plants sprayed 24 hours before contamination; grading 5 days after contamination vs control plants. The method in brief:
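Radish plants ('Pernod Clair', grown at 17 °C) were spray-treated at the 2-leaf stage; controls received solvent mix only. After 24 h, leaves were sprayed with 50 000 spores/ml from 15-day-old cultures, and % efficacy was graded 5 days post-inoculation against controls.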

The test system of a further data set is Botrytis cinerea. The data set can be described thus: In vivo preventive test on Botrytis cinerea (grey mould). The conditions noted are these: 500 ppm; gherkin plants sprayed 24 hours before contamination; grading 4-5 days after contamination vs control plants. The method in brief: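 Gherkin plants ("Vert petit de Paris") sprayed with compound at Z11 cotyledon stage, then inoculated 24 h later with B. cinerea spores (50 000/ml) in PDB/fructose/NH4NO3/KH2PO4 nutrient solution. Incubated at 17 °C, 80% RH; % efficacy versus solvent-treated controls graded 4–5 days after contamination.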

The subject of a further data set is Sphaerotheca fuliginea. The data set can be described thus: In vivo preventive test on Sphaerotheca fuliginea (powdery mildew on cucurbits). As to conditions: 500 ppm; gherkin plants sprayed 24 hours before contamination; grading 12 days after contamination vs control plants. The method, boiled down:
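Preventive spray of gherkin plants at Z11 cotyledon stage, grown at 24° C; inoculation 24 hours later with Sphaerotheca fuliginea spores (100 000 spores per ml). Efficacy graded 12 days post-inoculation as % versus solvent-treated control plants.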

In the next data set the test system is Puccinia recondita. The data set can be described thus: In vivo preventive test on Puccinia recondita (brown rust on wheat). As to conditions: 500 ppm; wheat plants sprayed 24 hours before contamination; grading 10 days after contamination vs control plants. The method in brief: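 Wheat (Scipion) grown at 22° C./20° C. (12 h each), sprayed with active ingredient at 1-leaf stage (10 cm); controls sprayed with acetone/tween/DMSO/water lacking active. Leaves inoculated 24 hours later with Puccinia recondita spore suspension (100 000 spores per ml).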

The next data set concerns Uromyces appendiculatus. The data set can be described thus: In vivo preventive test on Uromyces appendiculatus (bean rust). As to conditions: 500 ppm; bean plants sprayed 24 hours before contamination; grading 10 days after contamination vs control plants. The method in brief:
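Saxa bean plants grown at 24° C were sprayed at the 2-leaf stage (9 cm). Controls got the acetone/tween/DMSO/water carrier without active material. Leaves were inoculated 24 hours later with a Uromyces appendiculatus spore suspension (150 000 spores per ml).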

Another data set has as its system Phytophthora infestans. The class given is in vivo. The conditions noted are these: 500 ppm; tomato plants sprayed 24 hours before contamination; grading 5 days after contamination vs control plants.
The next data set relates to Peronospora parasitica. The data set can be described thus: In vivo preventive test on Peronospora parasitica (crucifer downy mildew). As to conditions: 500 ppm; cabbage plants sprayed 24 hours before contamination; grading 5 days after contamination vs control plants. On the procedure:
Cabbage plants (Eminence variety) in starter cups, sown on a 50/50 peat soil-pozzolana substrate and grown at 18-20° C., are treated at the cotyledon stage by spraying with the aqueous suspension described above. Plants, used as controls, are treated with an aqueous solution not containing the active material. After 24 hours, the plants are contaminated by spraying them with an aqueous suspension of Peronospora parasitica spores (50.000 spores per ml). The spores are collected from infected plant. The contaminated cabbage plants are incubated for 5 days at 20° C., under a humid atmosphere. Grading is carried out 5 days after the contamination, in comparison with the control plants.

Another data set deals with Septoria tritici. The data set can be described thus: In vivo preventive test on Septoria tritici (leaf spot on wheat). The conditions noted are these: 500 ppm; wheat plants sprayed 24 hours before contamination; grading 21 to 28 days after contamination vs control plants. The method, boiled down:
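Scipion wheat at 1-leaf stage sprayed with compound, controls receiving acetone/tween/DMSO/water vehicle; 24 h later leaves inoculated with Septoria tritici spores (500 000 spores per ml). Efficacy (%) graded versus control plants 21 to 28 days after contamination.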

The structures appear in SMILES notation. Where two headings read alike, the source gives them in different places.

Procedure for physchem: Measurement of log P values was performed according EEC directive 79/831 Annex V.A8 by HPLC (High Performance Liquid Chromatography) on reversed phase columns with the following methods: ^[a]

Consider `CC1(C(=O)O)CC(c2ccc3ncc(Cl)cc3c2)=NO1` (stereo not shown) [Compound No. II-01, 3-(3-chloroquinolin-6-yl)-5-methyl-4,5-dihydro-1,2-oxazole-5-carboxylic acid], for which the chromatographic logP (in [1]; in “physchem”) was 1.87 throughout.
Take `CC1(C(=O)O)CC(c2ccc3ncc(I)cc3c2)=NO1` (stereo not shown) [Compound No. II-09]: the chromatographic logP (as a rule, a lipophilicity value derived from retention on a column) in [1] was determined as 1.93; in “physchem”, 2.05.
As for `COC(=O)C1(C)CC(c2ccc3ncc(Cl)cc3c2)=NO1` (stereo not shown) [II-23, methyl 3-(3-chloroquinolin-6-yl)-5-methyl-4,5-dihydro-1,2-oxazole-5-carboxylate], the chromatographic logP (in data set [1]; in the data set “physchem”) was 2.58 throughout.
Turning to `COC1(C(=O)NC(C)C)CC(c2ccc3ncc(Br)cc3c2)=NO1` (stereo not shown) [compound 48], the “% of efficacy (protection)” value with Pyrenophora teres was determined as 93%; in the data set on Alternaria brassicae, 97%; with Botrytis cinerea, 100%; in the data set on Sphaerotheca fuliginea, 100%; in the data set on Puccinia recondita it was 89%; in the data set with Uromyces appendiculatus, 96%. The “% of efficacy (protection)” value in the data set on Phytophthora infestans and with Septoria tritici was 100% in each case. In addition, the “log P” value in [1] (method [a]: HPLC/LC-MS on reversed phase at pH 2.7, 0.1% formic acid in water / acetonitrile, linear gradient 10% to 95% acetonitrile) was 2.64^[a]. Further, the “Grading, protection” value in the data set with Peronospora parasitica was 98%.
